Laboratory results as given in US11021493B2, “1,4-thiazine dioxide and 1,2,4-thiadiazine dioxide derivatives as beta-secretase inhibitors and methods of use” (AMGEN INC., priority 2016, dated 2021).

Key:
[1] = biological target: Cathepsin D (CatD) (Homo sapiens (Human), UniProt P07339); assay: In vitro enzymatic Cathepsin D (CatD) FRET assay; type: biochemical; settings: read-out: Cat D Enzyme IC50
[2] = biological target: T1, BACE1 (Homo sapiens (Human), UniProt P56817); assay: In vitro BACE1 cell-based assay (Aβ40 in conditioned medium of cells stably expressing APP, HTRF); settings: Aβ40 in conditioned media after 24 h incubation
Target sequence in this assay (P56817 46-501, species assumed): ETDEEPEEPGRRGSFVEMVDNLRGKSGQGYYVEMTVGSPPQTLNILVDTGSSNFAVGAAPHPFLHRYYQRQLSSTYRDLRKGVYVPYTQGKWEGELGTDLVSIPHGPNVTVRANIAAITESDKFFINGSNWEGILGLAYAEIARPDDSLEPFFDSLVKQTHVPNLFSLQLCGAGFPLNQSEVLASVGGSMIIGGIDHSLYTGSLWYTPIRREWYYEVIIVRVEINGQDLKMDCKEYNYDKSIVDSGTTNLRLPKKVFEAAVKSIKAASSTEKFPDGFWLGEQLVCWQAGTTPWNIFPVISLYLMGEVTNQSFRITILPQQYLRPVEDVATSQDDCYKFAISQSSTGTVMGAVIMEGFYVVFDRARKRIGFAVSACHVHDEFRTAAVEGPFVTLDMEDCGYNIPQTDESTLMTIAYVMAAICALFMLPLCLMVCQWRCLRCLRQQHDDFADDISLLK

[3] = biological target: human recombinant BACE2 (Homo sapiens (Human), UniProt Q9Y5Z0); assay: In vitro enzymatic BACE2 FRET assay; type: biochemical; settings: read-out: BACE2 Enzyme IC50
Sequence of human recombinant BACE2 (Q9Y5Z0 63-518): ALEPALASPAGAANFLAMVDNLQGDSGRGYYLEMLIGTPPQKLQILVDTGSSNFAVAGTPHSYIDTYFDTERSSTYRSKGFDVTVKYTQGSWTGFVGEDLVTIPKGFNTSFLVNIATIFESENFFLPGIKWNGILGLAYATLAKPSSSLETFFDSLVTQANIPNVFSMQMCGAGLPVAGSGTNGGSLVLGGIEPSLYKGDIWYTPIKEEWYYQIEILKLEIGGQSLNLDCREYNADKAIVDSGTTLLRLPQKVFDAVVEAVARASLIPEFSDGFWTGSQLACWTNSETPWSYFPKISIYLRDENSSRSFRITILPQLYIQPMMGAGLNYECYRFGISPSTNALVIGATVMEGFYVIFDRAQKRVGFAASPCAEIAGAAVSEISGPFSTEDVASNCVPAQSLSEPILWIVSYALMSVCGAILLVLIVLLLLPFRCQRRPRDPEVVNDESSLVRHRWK

[4] = biological target: β-secretase (Rattus norvegicus (Rat), UniProt P56819); assay: In vivo inhibition of β-secretase: Aβ reduction in rat CSF and brain
Sequence of β-secretase (P56819 46-501): as the sequence (P56817 46-501, species assumed) above, with G82S, V162I, L165I, S180T, V182A, I340V, L393A, Q443H counted along it
Procedure: In Vivo Inhibition of β-Secretase
Animals to be used in this experiment can be wild type, transgenic, or gene knockout animals.
A separate group of animals receive 2% hydroxypropyl methylcellulose, 1% Tween80 alone, containing no test compound, and serve as a vehicle-control group. At the end of the test period, animals are sacrificed and brain tissues, plasma or cerebrospinal fluid are collected. […] Homogenates are centrifuged at 355,000 g, 4° C. for 30 minutes. CSF or brain supernatants are then analyzed for the presence of Aβ by specific sandwich ELISA assays based on ECL (Electrochemiluminescence) technology. For example, rat Aβ40 is measured using biotinylated-4G8 (Signet) as a capture antibody and Fab40 (an in-house antibody specific to the C-terminal of Aβ40) as a detection antibody.

[5] = biological target: T1, BACE1; assay: In vitro enzymatic BACE1 FRET assay; type: biochemical; settings: read-out: BACE1 Enzyme IC50
Target sequence in this assay (P56817 46-501): as the sequence (P56817 46-501, species assumed) above

[6] = cited from earlier work
[7] = tested on: BACE; settings: nonhuman primates; cited from earlier work

Sequence of Cathepsin D (CatD) (P07339 65-412, species assumed): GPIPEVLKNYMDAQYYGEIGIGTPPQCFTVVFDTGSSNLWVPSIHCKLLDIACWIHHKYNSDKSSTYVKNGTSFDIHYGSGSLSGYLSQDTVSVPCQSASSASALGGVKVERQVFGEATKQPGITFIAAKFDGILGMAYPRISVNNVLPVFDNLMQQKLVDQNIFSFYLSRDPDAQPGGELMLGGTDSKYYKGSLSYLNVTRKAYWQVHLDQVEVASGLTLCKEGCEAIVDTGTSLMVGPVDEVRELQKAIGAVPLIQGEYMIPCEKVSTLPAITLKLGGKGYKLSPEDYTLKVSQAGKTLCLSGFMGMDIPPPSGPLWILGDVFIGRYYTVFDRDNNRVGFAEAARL

Row | IC50 [1] [nM] | IC50 [2] [nM] | IC50 [3] [nM] | % Aβ reduction in rat CSF at 10 mpk [4] [%] | % Aβ reduction in rat brain at 10 mpk [4] [%] | IC50 [5] [nM] | SMILES | clinical safety ([6]; repeated doses up to 200 mg, phase I clinical trial) | Aβ peptide levels in the CSF and plasma [7] | safety profile ([6]; phase I clinical trials)
1 | 151000 | 6 | 97 | 12 | 16 | 3 | Cc1noc(COc2cnc(/C(F)=C/c3ccc(F)c([C@]4(C)CS(=O)(=O)N(C)C(N)=N4)c3)cn2)n1 [Example 146, (R,Z)-3-amino-5-(2-fluoro-5-(2-fluoro-2-(5-((3-methyl-1,2,4-oxadiazol-5-yl)methoxy)pyrazin-2-yl)vinyl)phenyl)-2,5-dimethyl-5,6-dihydro-2H-1,2,4-thiadiazine 1,1-dioxide] |  |  | 
2 | 40900 | 4 | 90 | 45 | 26 | 4 | CN1C(N)=N[C@](C)(c2cc(/C=C(\F)c3cnc(OCc4ncco4)cn3)cc(F)c2F)CS1(=O)=O [Example 166, (R,Z)-3-amino-5-(2,3-difluoro-5-(2-fluoro-2-(5-(oxazol-2-ylmethoxy)pyrazin-2-yl)vinyl)phenyl)-2,5-dimethyl-5,6-dihydro-2H-1,2,4-thiadiazine 1,1-dioxide] |  |  | 
3 | 375000 | 24 | 451 | 19 | 43 | 5 | C#C[C@H](C)Oc1cnc(/C(F)=C/c2ccc(F)c([C@@]3(C)N=C(N)N(C)S(=O)(=O)C3(C)C)c2)cn1 [Example 186, (R)-3-amino-5-(5-((Z)-2-(5-((S)-but-3-yn-2-yloxy)pyrazin-2-yl)-2-fluorovinyl)-2-fluorophenyl)-2,5,6,6-tetramethyl-5,6-dihydro-2H-1,2,4-thiadiazine 1,1-dioxide] |  |  | 
4 | 129000 | 8 | 175 | 64 | 70 | 6 | CN1C(N)=N[C@](C)(c2cc(/C=C(\F)c3ccc(C#N)cn3)ccc2F)C2(CC2)S1(=O)=O [Example 127, (R,Z)-6-(2-(3-(6-amino-5,8-dimethyl-4,4-dioxido-4-thia-5,7-diazaspiro[2.5]oct-6-en-8-yl)-4-fluorophenyl)-1-fluorovinyl)nicotinonitrile] |  |  | 
5 |  |  |  |  |  |  | C[C@H]1OC[C@]2(c3cc(NC(=O)c4cnc(C(F)F)cn4)ccc3F)N=C(N)SC[C@H]12 [Example E2609] | did not show clinical significant safety concerns | significant reduction | 
6 |  |  |  | 43 | 58 |  | CC#C[C@H](CC)Oc1cnc(/C(F)=C/c2ccc(F)c([C@]3(C)CS(=O)(=O)C(C)(C)C(N)=N3)c2)cn1 [Example 199, (R)-5-amino-3-(2-fluoro-5-((Z)-2-fluoro-2-(5-((S)-hex-4-yn-3-yloxy)pyrazin-2-yl)vinyl)phenyl)-3,6,6-trimethyl-3,6-dihydro-2H-1,4-thiazine 1,1-dioxide] |  |  | 
7 | 42700 | 9 | 179 | 65 | 61 | 5 | C#CCOc1cnc(/C(F)=C/c2cc(F)c(F)c([C@]3(C)CS(=O)(=O)C(C)(C)C(N)=N3)c2)cn1 [Example 204, (R,Z)-5-amino-3-(2,3-difluoro-5-(2-fluoro-2-(5-(prop-2-yn-1-yloxy)pyrazin-2-yl)vinyl)phenyl)-3,6,6-trimethyl-3,6-dihydro-2H-1,4-thiazine 1,1-dioxide] |  |  | 
8 | 244000 | 7 | 129 | 68 | 65 | 5 | C#CCOc1cnc(/C(F)=C/c2cnc(F)c([C@]3(C)CS(=O)(=O)C(C)(C)C(N)=N3)c2)cn1 [Example 205, (R,Z)-5-amino-3-(2-fluoro-5-(2-fluoro-2-(5-(prop-2-yn-1-yloxy)pyrazin-2-yl)vinyl)pyridin-3-yl)-3,6,6-trimethyl-3,6-dihydro-2H-1,4-thiazine 1,1-dioxide] |  |  | 
9 |  |  |  |  |  |  | CN1C(=N)N[C@](C)(c2cc(NC(=O)c3ccc(F)cn3)ccc2F)CS1(=O)=O [MK-8931] |  |  | no immediately noticeable side effects
10 | 125000 | 18 | 147 | 33 | 35 | 4 | C#C[C@H](C)Oc1cnc(/C(F)=C/c2ccc(F)c([C@@]3(C)N=C(N)[C@@]4(CF)CC[C@@H]3S4(=O)=O)c2)cn1 [Example 128, (1R,4R,5S)-2-amino-4-(5-((Z)-2-(5-((S)-but-3-yn-2-yloxy)pyrazin-2-yl)-2-fluorovinyl)-2-fluorophenyl)-1-(fluoromethyl)-4-methyl-8-thia-3-azabicyclo[3.2.1]oct-2-ene 8,8-dioxide] |  |  | 
11 | 100000 | 457 | 141 |  |  | 138 | C[C@]1(c2cc(/C=C(\F)c3cnc(OCC4COC4)cn3)ccc2F)N=C(N)[C@@]2(CF)CC[C@@H]1S2(=O)=O [Example 126, (1R,4R,5S)-2-amino-4-(2-fluoro-5-((Z)-2-fluoro-2-(5-(oxetan-3-ylmethoxy)pyrazin-2-yl)vinyl)phenyl)-1-(fluoromethyl)-4-methyl-8-thia-3-azabicyclo[3.2.1]oct-2-ene 8,8-dioxide] |  |  | 
12 | 249000 | 2180 | 1060 |  |  | 636 | CC(C)(C#N)COc1cnc(/C(F)=C/c2ccc(F)c([C@]3(C)CS(=O)(=O)C(C)(C)C(N)=N3)c2)cn1 [Example 153, (R,Z)-3-((5-(2-(3-(5-amino-3,6,6-trimethyl-1,1-dioxido-3,6-dihydro-2H-1,4-thiazin-3-yl)-4-fluorophenyl)-1-fluorovinyl)pyrazin-2-yl)oxy)-2,2-dimethylpropanenitrile] |  |  | 
13 | 86300 | 6 | 5 |  |  | 7 | CN1C(N)=N[C@](C)(c2cc(/C=C(\F)c3cnc(Cl)cn3)ccc2F)CS1(=O)=O [Example 111, (R,Z)-3-amino-5-(5-(2-(5-chloropyrazin-2-yl)-2-fluorovinyl)-2-fluorophenyl)-2,5-dimethyl-5,6-dihydro-2H-1,2,4-thiadiazine 1,1-dioxide] |  |  | 
14 | 173000 | 60 | 163 |  |  | 33 | COCCOc1cnc(/C(F)=C/c2ccc(F)c([C@@]3(C)N=C(N)[C@@]4(CF)CC[C@@H]3S4(=O)=O)c2)cn1 [Example 130, (1R,4R,5S)-2-amino-4-(2-fluoro-5-((Z)-2-fluoro-2-(5-(2-methoxyethoxy)pyrazin-2-yl)vinyl)phenyl)-1-(fluoromethyl)-4-methyl-8-thia-3-azabicyclo[3.2.1]oct-2-ene 8,8-dioxide] |  |  | 
15 | 207000 | 5 | 120 | 52 | 34 | 1 | C#C[C@H](C)Oc1cnc(/C(F)=C/c2ccc(F)c([C@]3(C)CS(=O)(=O)C(C)(C)C(N)=N3)c2)cn1 [Example 160, (R)-5-amino-3-(5-((Z)-2-(5-((S)-but-3-yn-2-yloxy)pyrazin-2-yl)-2-fluorovinyl)-2-fluorophenyl)-3,6,6-trimethyl-3,6-dihydro-2H-1,4-thiazine 1,1-dioxide] |  |  | 
16 | 265000 | 138 | 28 |  |  | 75 | CN1C(N)=N[C@](C)(c2cc(/C=C(\F)c3ccc(F)cn3)cc(F)c2F)CS1(=O)=O [Example 270, (R,Z)-3-amino-5-(2,3-difluoro-5-(2-fluoro-2-(5-fluoropyridin-2-yl)vinyl)phenyl)-2,5-dimethyl-5,6-dihydro-2H-1,2,4-thiadiazine 1,1-dioxide] |  |  | 
17 | 195000 | 529 | 285 |  |  | 180 | C[C@@H](CO)Oc1cnc(/C(F)=C/c2ccc(F)c([C@]3(C)CS(=O)(=O)C(C)(C)C(N)=N3)c2)cn1 [Example 218, (R)-5-amino-3-(2-fluoro-5-((Z)-2-fluoro-2-(5-(((S)-1-hydroxypropan-2-yl)oxy)pyrazin-2-yl)vinyl)phenyl)-3,6,6-trimethyl-3,6-dihydro-2H-1,4-thiazine 1,1-dioxide] |  |  | 
18 | 100000 | 4 | 9 |  |  | 2 | CC1(C)C(N)=N[C@](C)(c2cc(/C=C(\F)c3ccc(C#N)cn3)ccc2F)CS1(=O)=O [Example 113, (R,Z)-6-(2-(3-(5-amino-3,6,6-trimethyl-1,1-dioxido-3,6-dihydro-2H-1,4-thiazin-3-yl)-4-fluorophenyl)-1-fluorovinyl)nicotinonitrile] |  |  | 
19 | 196000 | 318 | 123 |  |  | 101 | C[C@]1(c2cc(/C=C(\F)c3cnc(OCC(F)F)cn3)ccc2F)N=C(N)[C@@]2(CF)CC[C@@H]1S2(=O)=O [Example 134, (1R,4R,5S)-2-amino-4-(5-((Z)-2-(5-(2,2-difluoroethoxy)pyrazin-2-yl)-2-fluorovinyl)-2-fluorophenyl)-1-(fluoromethyl)-4-methyl-8-thia-3-azabicyclo[3.2.1]oct-2-ene 8,8-dioxide] |  |  | 

Row | SMILES | IC50 [1] [nM] | IC50 [2] [nM] | IC50 [3] [nM] | % Aβ reduction in rat CSF at 10 mpk [4] [%] | % Aβ reduction in rat brain at 10 mpk [4] [%] | IC50 [5] [nM] | clinical safety ([6]; repeated doses up to 200 mg, phase I clinical trial) | Aβ peptide levels in the CSF and plasma [7] | safety profile ([6]; phase I clinical trials)
20 | CC1(C)C(N)=N[C@@]2(c3ccc(/C=C(\F)c4ccc(C#N)cn4)cc3F)COC[C@H]2S1(=O)=O [Example 261, 6-((Z)-2-(4-((4aS,7aS)-3-amino-2,2-dimethyl-1,1-dioxido-4a,5,7,7a-tetrahydro-2H-furo[3,4-b][1,4]thiazin-4a-yl)-3-fluorophenyl)-1-fluorovinyl)nicotinonitrile] | 178000 | 34 | 12 | 69 | 60 | 2 |  |  | 
